Consider 16 compounds from patent US10662204B2 (PFIZER INC., priority 2018, dated 2020).

The target of one experiment is KRAS G12C (Homo sapiens, UniProt P01116, G12C). The experiment can be described thus: Cell Activity Assay: accumulation of GDP-bound KRAS G12C in MIAPaCa-2 cells (Raf-1 RBD capture, MSD readout). The class given is cell-based. Set-up: endogenous in cells; host or cells: MIAPaCa-2. The settings on record: 6 hours, assay limit is 30.00. The gist of the method: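 IC50 came from a 4-parameter fit of Ras signal normalized between DMSO and full-inhibition controls. Readout: lysate GTP-Ras bound to immobilized Raf-1 RBD, quantified with pan-Ras antibody and MSD electrochemiluminescence. Lysates derived from MIAPaCa-2 cells treated 6 h with serially diluted compound, 0.3% DMSO.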

Experiment [1] addresses T1, GDP-loaded KRAS (1-169) G12C, C51S, C80L, C118S (Homo sapiens, UniProt P01116, C118S/C51S/C80L/G12C).
T1 construct: GDP-loaded KRAS (1-169) G12C, C51S, C80L, C118S
The experiment can be described thus: Mass Spectrometry Reactivity Assay (MSRA): covalent adduct of compound and KRAS G12C, Percent Modification. Type of experiment: binding. The conditions noted are these: for MSRA (% modification) 10 μM 0.25 hr / MSRA (% modification) 10 μM 0.50 hr: 10 μM compound; for MSRA (% modification) 5.0 μM 0.017 hr / MSRA (% modification) 5.0 μM 0.25 hr: 5.0 μM compound. An outline of the steps:
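Covalent labelling is measured by intact mass: deconvoluted modified and unmodified peak intensities yield percent modification. Compound, usually 5 μM or 10 μM final, reacts at room temperature with 5 μM GDP-bound KRAS G12C (1-169, C51S/C80L/C118S) in Hepes pH 7.5/NaCl/glycerol, sampled at 1, 15, 30, 60 min.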

As usually defined, the IC50 is the concentration at which inhibition is half-maximal.

In turn, `C=CC(=O)N1CCN(c2nc(NCc3ncc[nH]3)nc3c(Oc4c(C)ccc5[nH]ncc45)cccc23)CC1` [Example 20F, 1-(4-{2-[(1H-imidazol-2-ylmethyl)amino]-8-[(5-methyl-1H-indazol-4-yl)oxy]quinazolin-4-yl}piperazin-1-yl)prop-2-en-1-one] returned an IC50 against KRAS G12C of 2.99 µM. Moreover, in experiment [1], the “MSRA (% modification) 10 μM 0.25 hr” value is listed as 17%.

`C=CC(=O)N1CCN(c2nc(OCCc3ncc[nH]3)nc3c(Oc4c(C)ccc5[nH]ncc45)cccc23)CC1` [Example 09F, 1-(4-{2-[2-(1H-imidazol-2-yl)ethoxy]-8-[(5-methyl-1H-indazol-4-yl)oxy]quinazolin-4-yl}piperazin-1-yl)prop-2-en-1-one]: the IC50 on KRAS G12C was found to be 3 µM. In experiment [1], the “MSRA (% modification) 10 μM 0.25 hr” value was found to be 64% and the “MSRA (% modification) 10 μM 0.50 hr” value was 75%.

Turning to `C=CC(=O)N1CCN(c2nc(O[C@@H]3CN(C)C[C@H]3OC)nc3c(Oc4c(Cl)ccc5[nH]ncc45)nc(Cl)cc23)CC1` [Example 38G, 1-[4-(6-chloro-8-[(5-chloro-1H-indazol-4-yl)oxy]-2-{[(3R,4R)-4-methoxy-1-methylpyrrolidin-3-yl]oxy}pyrido[3,4-d]pyrimidin-4-yl)piperazin-1-yl]prop-2-en-1-one], the IC50 against KRAS G12C amounted to 0.021 µM. For the same compound, the “MSRA (% modification) 5.0 μM 0.017 hr” value in experiment [1] was determined as 75%.

At KRAS G12C, `[2H]C([2H])([2H])N1C[C@@H](OC)[C@H](Oc2nc(N3CCN(C(=O)C=C)CC3)c3cc(Cl)nc(Oc4c(Cl)c(F)cc5[nH]ncc45)c3n2)C1` [Example 41G, 1-[4-(6-chloro-8-[(5-chloro-6-fluoro-1H-indazol-4-yl)oxy]-2-{[(3R,4R)-4-methoxy-1-(^2H3)methylpyrrolidin-3-yl]oxy}pyrido[3,4-d]pyrimidin-4-yl)piperazin-1-yl]prop-2-en-1-one] showed an IC50 of 0.007 µM. The “MSRA (% modification) 5.0 μM 0.017 hr” value in experiment [1] amounted to 83%.

As to `C#CCCN1C[C@@H](OC)[C@H](Oc2nc(N3CCN(C(=O)C=C)CC3)c3cc(Cl)nc(Oc4c(Cl)c(F)cc5[nH]ncc45)c3n2)C1` [Example 39G, 1-[4-(2-{[(3R,4R)-1-(but-3-yn-1-yl)-4-methoxypyrrolidin-3-yl]oxy}-6-chloro-8-[(5-chloro-6-fluoro-1H-indazol-4-yl)oxy]pyrido[3,4-d]pyrimidin-4-yl)piperazin-1-yl]prop-2-en-1-one], at KRAS G12C, the IC50 turned out to be 0.014 µM. The “MSRA (% modification) 5.0 μM 0.017 hr” value in experiment [1] is 76%.

At KRAS G12C, `C=CC(=O)N1CCN(c2nc(OCCN(C)C)nc3c(Oc4c(Cl)c(C)cc5[nH]ncc45)nccc23)CC1` [Example 05E, 1-(4-{8-[(5-chloro-6-methyl-1H-indazol-4-yl)oxy]-2-[2-(dimethylamino)ethoxy]pyrido[3,4-d]pyrimidin-4-yl}piperazin-1-yl)prop-2-en-1-one] gave an IC50 of 0.559 µM. Also, in experiment [1], the “MSRA (% modification) 10 μM 0.25 hr” value was found to be 72% and the “MSRA (% modification) 10 μM 0.50 hr” value was determined as 76%.

As for `C=CC(=O)N1CCN(c2ncnc3c(Oc4c(Cl)c(C)cc5[nH]ncc45)cccc23)CC1` [Example 06C, 1-(4-{8-[(5-chloro-6-methyl-1H-indazol-4-yl)oxy]quinazolin-4-yl}piperazin-1-yl)prop-2-en-1-one], on KRAS G12C, the IC50 turned out to be 1.62 µM. In addition, the “MSRA (% modification) 10 μM 0.50 hr” value in experiment [1] turned out to be 53%.

On to `C=CC(=O)N1CCN(c2ncnc3c(Oc4c(C)ccc5[nH]ncc45)nc(C)cc23)CC1` [Example 02A, 1-(4-{6-methyl-8-[(5-methyl-1H-indazol-4-yl)oxy]pyrido[3,4-d]pyrimidin-4-yl}piperazin-1-yl)prop-2-en-1-one], for which the IC50 on KRAS G12C was determined as 5.25 µM. The “MSRA (% modification) 10 μM 0.50 hr” value in experiment [1] is reported as 15%.

In turn, `C=CC(=O)N1CCN(c2nc(OC[C@@]3(F)CCN(C)C3)nc3c(Oc4c(Cl)c(F)cc5[nH]ncc45)nccc23)CC1` [Example 15H, 1-[4-(8-[(5-chloro-6-fluoro-1H-indazol-4-yl)oxy]-2-{[(3R)-3-fluoro-1-methylpyrrolidin-3-yl]methoxy}pyrido[3,4-d]pyrimidin-4-yl)piperazin-1-yl]prop-2-en-1-one] displayed an IC50 against KRAS G12C of 0.461 µM. In experiment [1], the “MSRA (% modification) 5.0 μM 0.25 hr” value stood at 25% and the “MSRA (% modification) 10 μM 0.25 hr” value is recorded as 54%.

Consider `C=CC(=O)N1CCN(c2nc(Oc3cccc4c3CCN(C(C)C)C4)nc3c(Oc4c(C)ccc5[nH]ncc45)nccc23)CC1` [Example 30I, 1-[4-(8-[(5-methyl-1H-indazol-4-yl)oxy]-2-{[2-(propan-2-yl)-1,2,3,4-tetrahydro-isoquinolin-5-yl]oxy}pyrido [3,4-d]pyrimidin-4-yl)piperazin-1-yl]prop-2-en-1-one], for which, on KRAS G12C, the IC50 was found to be 0.03 µM. In addition, the “MSRA (% modification) 5.0 μM 0.017 hr” value in experiment [1] was 45%.

The compound `C=CC(=O)N1CCN(c2nc(Oc3cccc4c3CCN(C3CC3)C4)nc3c(Oc4c(Cl)c(F)cc5[nH]ncc45)nccc23)CC1` [Example 55I, 1-(4-{8-[(5-chloro-6-fluoro-1H-indazol-4-yl)oxy]-2-[(2-cyclo-propyl-1,2,3,4-tetrahydro-isoquinolin-5-yl)oxy]pyrido [3,4-d]pyrimidin-4-yl}piperazin-1-yl)prop-2-en-1-one] showed an IC50 on KRAS G12C of 0.028 µM. In addition, the “MSRA (% modification) 5.0 μM 0.017 hr” value in experiment [1] was found to be 60%.

Take `C=CC(=O)N1C[C@H](C)N(c2nc(N3CC(N(C)C)C3)nc3c(Oc4c(C)ccc5[nH]ncc45)nc(C)cc23)C[C@H]1C` [Example 06B, 1-[(2R,5S)-4-{2-[3-(Dimethylamino)azetidin-1-yl]-6-methyl-8-[(5-methyl-1H-indazol-4-yl)oxy]pyrido[3,4-d]pyrimidin-4-yl}-2,5-dimethylpiperazin-1-yl]prop-2-en-1-one]: the IC50 against KRAS G12C was > 30 µM. For the same compound, in experiment [1], the “MSRA (% modification) 10 μM 0.50 hr” value was 9%.

`C=CC(=O)N1CCN(c2ncnc3c(Oc4c(Cl)c(C)cc5[nH]ncc45)nccc23)C[C@H]1C` [Example 21A, 1-[(2R)-4-{8-[(5-chloro-6-methyl-1H-indazol-4-yl)oxy]pyrido[3,4-d]pyrimidin-4-yl}-2-methylpiperazin-1-yl]prop-2-en-1-one]: on KRAS G12C, inhibition was half-maximal at 10.6 µM (IC50). The “MSRA (% modification) 10 μM 0.50 hr” value in experiment [1] is on record as 12%.

As for `C=CC(=O)N1CCN(c2nc(N3CC(N(C)C)C3)nc3c(Oc4c(C)ccc5[nH]ncc45)cccc23)CC1` [Example 02E, 1-(4-{2-[3-(dimethylamino)azetidin-1-yl]-8-[(5-methyl-1H-indazol-4-yl)oxy]quinazolin-4-yl}piperazin-1-yl)prop-2-en-1-one], inhibition against KRAS G12C was half-maximal at 6.46 µM (IC50). Further, the “MSRA (% modification) 10 μM 0.50 hr” value in experiment [1] worked out at 32%.

In the case of `C=CC(=O)N1CCN(c2nc(OC[C@@H]3COCCN3C)nc3c(Oc4c(Cl)c(F)cc5[nH]ncc45)nccc23)CC1` [Example 03H, 1-[4-(8-[(5-chloro-6-fluoro-1H-indazol-4-yl)oxy]-2-{[(3S)-4-methylmorpholin-3-yl]methoxy}pyrido[3,4-d]pyrimidin-4-yl)piperazin-1-yl]prop-2-en-1-one], the IC50 against KRAS G12C turned out to be 0.842 µM. In experiment [1], the “MSRA (% modification) 5.0 μM 0.25 hr” value was 51% and the “MSRA (% modification) 10 μM 0.50 hr” value was determined as 72%.

At KRAS G12C, `C=CC(=O)N1CCN(c2nc(OC[C@@]3(F)CCCN(C)C3)nc3c(Oc4c(Cl)c(F)cc5[nH]ncc45)nccc23)CC1` [Example 15I, 1-[4-(8-[(5-chloro-6-fluoro-1H-indazol-4-yl)oxy]-2-{[(3R)-3-fluoro-1-methyl-piperidin-3-yl]methoxy}pyrido [3,4-d]pyrimidin-4-yl)piperazin-1-yl]prop-2-en-1-one] yielded an IC50 of 0.126 µM. The “MSRA (% modification) 5.0 μM 0.25 hr” value in experiment [1] is reported as 81%.
